Activity calls are given as the source filed them. No cut-off for these calls is given here.
Columns and labels:
[1] = test system: SH-SY5Y; assay: Neuroprotective activity against H2O2-induced oxidative stress in human SH-SY5Y cells assessed as cell viability at 10 uM preincubated for 2 hrs followed by H2O2 stimulation for 30 mins followed by further incubation for 24 hrs by MTT assay relative to control; type: functional; details: for viability at 10 µM: read-out: Activity
[2] = test system: RAW264.7; assay: Neuroprotective activity against LPS-induced oxidative stress in mouse RAW264.7 cells assessed as reduction in NO production at 10 uM preincubated for 30 mins followed by LPS stimulation for 20 hrs by Griess reagent based microplate reader assay relative to control; type: functional
[3] = test system: SH-SY5Y; assay: Neuroprotective activity against oxygen-glucose deprivation-induced cell damage in human SH-SY5Y cells assessed as increase in cell viability measured after 5.5 hrs of post OGD challenge by MTT assay; type: functional, cell-based
[4] = test system: SH-SY5Y; assay: Neuroprotective activity against H2O2-induced oxidative stress in human SH-SY5Y cells assessed as cell viability at 1 mM preincubated for 2 hrs followed by H2O2 stimulation for 30 mins followed by further incubation for 24 hrs by MTT assay relative to control; type: functional; details: read-out: Activity

Row | SMILES | viability at 10 µM [1] | inhibition at 10 µM [2] | other results
1 | C[C@@H]1CC[C@@]2(OC1)O[C@H]1C[C@H]3[C@@H]4CC[C@@H]5C[C@@H](OC(=O)N6CCN(CCO)CC6)CC[C@]5(C)[C@H]4CC[C@]3(C)[C@H]1[C@@H]2C | – | – | Activity [1]: inactive
2 | C[C@@H]1CC[C@@]2(OC1)O[C@H]1C[C@H]3[C@@H]4CC[C@@H]5C[C@@H](OC(=O)N(C)C)CC[C@]5(C)[C@H]4CC[C@]3(C)[C@H]1[C@@H]2C | 6.3% | – | –
3 | COc1ccc(CN2CCN(C(=O)O[C@H]3CC[C@@]4(C)[C@H](CC[C@@H]5[C@@H]4CC[C@]4(C)[C@@H]6[C@H](C[C@@H]54)O[C@]4(CC[C@@H](C)CO4)[C@H]6C)C3)CC2)cc1 | 4.8% | – | –
4 | C[C@@H]1CC[C@@]2(OC1)O[C@H]1C[C@H]3[C@@H]4CC[C@@H]5C[C@@H](O)CC[C@]5(C)[C@H]4CC[C@]3(C)[C@H]1[C@@H]2C | 3.5% | – | –
5 | C[C@@H]1CC[C@@]2(OC1)O[C@H]1C[C@H]3[C@@H]4CC[C@@H]5C[C@@H](OC(=O)N6CCN(Cc7ccc(Cl)cc7)CC6)CC[C@]5(C)[C@H]4CC[C@]3(C)[C@H]1[C@@H]2C | 34.8% | 15.2% | Activity [3]: Active
6 | CC(C)CNC(=O)O[C@H]1CC[C@@]2(C)[C@H](CC[C@@H]3[C@@H]2CC[C@]2(C)[C@@H]4[C@H](C[C@@H]32)O[C@]2(CC[C@@H](C)CO2)[C@H]4C)C1 | 9.2% | – | –
7 | C[C@@H]1CC[C@@]2(OC1)O[C@H]1C[C@H]3[C@@H]4CC[C@@H]5C[C@@H](OC(=O)N6CCN(Cc7ccccc7O)CC6)CC[C@]5(C)[C@H]4CC[C@]3(C)[C@H]1[C@@H]2C | 38.4% | 7.02% | –
8 | COc1cc(CN2CCN(C(=O)O[C@H]3CC[C@@]4(C)[C@H](CC[C@@H]5[C@@H]4CC[C@]4(C)[C@@H]6[C@H](C[C@@H]54)O[C@]4(CC[C@@H](C)CO4)[C@H]6C)C3)CC2)ccc1O | 10.3% | – | –
9 | C[C@@H]1CC[C@@]2(OC1)O[C@H]1C[C@H]3[C@@H]4CC[C@@H]5C[C@@H](OC(=O)NCc6ccccc6)CC[C@]5(C)[C@H]4CC[C@]3(C)[C@H]1[C@@H]2C | 5.8% | – | –
10 | C[C@@H]1CC[C@@]2(OC1)O[C@H]1C[C@H]3[C@@H]4CC[C@@H]5C[C@@H](OC(=O)N6CCN(Cc7ccc(C#N)cc7)CC6)CC[C@]5(C)[C@H]4CC[C@]3(C)[C@H]1[C@@H]2C | 40.5% | 23.5% | Activity [3]: Active
11 | C[C@@H]1CC[C@@]2(OC1)O[C@H]1C[C@H]3[C@@H]4CC[C@@H]5C[C@@H](OC(=O)N6CCN(C)CC6)CC[C@]5(C)[C@H]4CC[C@]3(C)[C@H]1[C@@H]2C | – | – | Activity [1]: inactive
12 | CC(=O)N[C@@H](CS)C(=O)O [ACETYLCYSTEINE] | – | – | viability at 1000 µM [4]: 37.1%
13 | C[C@@H]1CC[C@@]2(OC1)O[C@H]1C[C@H]3[C@@H]4CC[C@@H]5C[C@@H](OC(=O)N6CCN(Cc7ccccc7)CC6)CC[C@]5(C)[C@H]4CC[C@]3(C)[C@H]1[C@@H]2C | 36.9% | 18.3% | Activity [3]: Active
14 | C[C@@H]1CC[C@@]2(OC1)O[C@H]1C[C@H]3[C@@H]4CC[C@@H]5C[C@@H](OC(=O)NCc6ccc(Cl)cc6)CC[C@]5(C)[C@H]4CC[C@]3(C)[C@H]1[C@@H]2C | 45.5% | 17.6% | Activity [3]: Active
15 | COc1ccc(CNC(=O)O[C@H]2CC[C@@]3(C)[C@H](CC[C@@H]4[C@@H]3CC[C@]3(C)[C@@H]5[C@H](C[C@@H]43)O[C@]3(CC[C@@H](C)CO3)[C@H]5C)C2)cc1 | 17.9% | 9.2% | –
16 | Cc1ccc(CNC(=O)O[C@H]2CC[C@@]3(C)[C@H](CC[C@@H]4[C@@H]3CC[C@]3(C)[C@@H]5[C@H](C[C@@H]43)O[C@]3(CC[C@@H](C)CO3)[C@H]5C)C2)cc1 | 29.2% | 6.8% | –

Source: ChEMBL document CHEMBL4351030, “Synthesis and biological evaluation of 3-carbamate smilagenin derivatives as potential neuroprotective agents” (2019)
